Experimental data as given in ChEMBL document CHEMBL1221208, “ATP-competitive inhibitors of the mitotic kinesin KSP that function via an allosteric mechanism” (Nat Chem Biol, 2007).
Activity calls are given as the source filed them. The calls are words filed in the database; no cut-off is given here.

Legend:
[1] = system: T1, Kinesin-like protein KIF11 (Homo sapiens), P52732 [A133D]; test: Uncompetitive inhibition of human KSP A133D mutant with respect to microtubule using varying ATP levels in presence of saturating levels of microtubule by Lineweaver-Burke plot
T1 sequence (whole entry): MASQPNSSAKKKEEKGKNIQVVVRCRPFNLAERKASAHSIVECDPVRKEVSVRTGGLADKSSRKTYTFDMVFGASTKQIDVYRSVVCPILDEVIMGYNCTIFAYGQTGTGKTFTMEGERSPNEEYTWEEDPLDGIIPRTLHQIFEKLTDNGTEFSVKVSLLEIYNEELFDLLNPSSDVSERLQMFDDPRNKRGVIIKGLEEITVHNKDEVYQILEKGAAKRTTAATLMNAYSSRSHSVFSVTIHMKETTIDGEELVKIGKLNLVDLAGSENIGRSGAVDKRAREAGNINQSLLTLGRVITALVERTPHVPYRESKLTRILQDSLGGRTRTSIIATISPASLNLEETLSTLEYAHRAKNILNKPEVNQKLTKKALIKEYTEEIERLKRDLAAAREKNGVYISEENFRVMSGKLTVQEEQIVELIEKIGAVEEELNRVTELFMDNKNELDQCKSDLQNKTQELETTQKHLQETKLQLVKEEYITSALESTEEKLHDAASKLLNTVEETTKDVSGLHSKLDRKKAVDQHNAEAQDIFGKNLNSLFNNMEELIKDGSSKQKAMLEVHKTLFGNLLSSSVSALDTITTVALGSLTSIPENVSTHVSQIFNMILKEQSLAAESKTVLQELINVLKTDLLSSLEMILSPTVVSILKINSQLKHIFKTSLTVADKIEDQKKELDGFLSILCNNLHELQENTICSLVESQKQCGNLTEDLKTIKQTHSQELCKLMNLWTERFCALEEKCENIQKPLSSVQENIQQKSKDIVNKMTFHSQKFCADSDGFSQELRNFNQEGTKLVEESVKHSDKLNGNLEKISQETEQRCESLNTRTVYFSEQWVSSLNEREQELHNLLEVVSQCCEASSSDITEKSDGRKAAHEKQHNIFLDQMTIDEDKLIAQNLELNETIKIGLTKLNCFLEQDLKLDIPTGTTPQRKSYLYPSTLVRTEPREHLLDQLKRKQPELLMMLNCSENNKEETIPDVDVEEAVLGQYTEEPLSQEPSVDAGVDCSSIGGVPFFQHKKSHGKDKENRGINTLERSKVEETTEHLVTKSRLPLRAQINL

HCT-116 [2] = test: Antiproliferative activity against 3x IC95 biaryl selected human HCT116 cells expressing Kinesin-like protein KIF11 D130V mutant after 72 hrs by Cell titer Glo assay; format: functional, cell-based; details: HCT-116, 72 h
HCT-116 [3] = test: Antiproliferative activity against IC50 biaryl selected human HCT116 cells expressing Kinesin-like protein KIF11 D130V mutant after 72 hrs by Cell titer Glo assay; format: functional, cell-based; details: HCT-116, 72 h
HCT-116 [4] = test: Antiproliferative activity against human HCT116 cells after 72 hrs by Cell titer Glo assay; format: functional, cell-based; details: HCT-116, 72 h
HCT-116 [5] = test: Antiproliferative activity against human HCT116 cells expressing Kinesin-like protein KIF11 D130V mutant after 72 hrs by Cell titer Glo assay; format: functional, cell-based; details: HCT-116, 72 h
HCT-116 [6] = test: Antiproliferative activity against 3x IC95 biaryl selected drug-resistant against human HCT116 cells after 72 hrs by Cell titer Glo assay; format: functional, cell-based; details: HCT-116, 72 h
[7] = Inhibition of KSP A356 mutant in 3x IC95 biaryl selected human HCT116 cells using varying ATP levels in presence of saturating levels of microtubule by Lineweaver-Burke plot; format: cell-based; details: hct-116
SK-OV-3 = test: Induction of monopolar spindle formation in human SKOV3 cells; format: functional, cell-based
HCT-116 [8] = test: Antiproliferative activity against IC95 biaryl selected drug-resistant against human HCT116 cells after 72 hrs by Cell titer Glo assay; format: functional, cell-based; details: HCT-116, 72 h
HCT-116 [9] = test: Antiproliferative activity against IC50 biaryl selected drug-resistant against human HCT116 cells after 72 hrs by Cell titer Glo assay; format: functional, cell-based; details: HCT-116, 72 h
HCT-116 [10] = test: Antiproliferative activity against IC95 biaryl selected human HCT116 cells expressing Kinesin-like protein KIF11 D130V mutant after 72 hrs by Cell titer Glo assay; format: functional, cell-based; details: HCT-116, 72 h
HCT-116 [11] = test: Induction of monopolar spindle formation in human HCT116 cells; format: functional, cell-based
[12] = molecular target: Kinesin-like protein KIF11 (Homo sapiens, UniProt P52732, I299F); test: Inhibition of human KSP I299F mutant in 6x IC95 biaryl selected human HCT116 cells using varying ATP levels in presence of saturating levels of microtubule by Lineweaver-Burke plot; format: cell-based, HCT-116
Chain of Kinesin-like protein KIF11 (P52732 whole entry I299F): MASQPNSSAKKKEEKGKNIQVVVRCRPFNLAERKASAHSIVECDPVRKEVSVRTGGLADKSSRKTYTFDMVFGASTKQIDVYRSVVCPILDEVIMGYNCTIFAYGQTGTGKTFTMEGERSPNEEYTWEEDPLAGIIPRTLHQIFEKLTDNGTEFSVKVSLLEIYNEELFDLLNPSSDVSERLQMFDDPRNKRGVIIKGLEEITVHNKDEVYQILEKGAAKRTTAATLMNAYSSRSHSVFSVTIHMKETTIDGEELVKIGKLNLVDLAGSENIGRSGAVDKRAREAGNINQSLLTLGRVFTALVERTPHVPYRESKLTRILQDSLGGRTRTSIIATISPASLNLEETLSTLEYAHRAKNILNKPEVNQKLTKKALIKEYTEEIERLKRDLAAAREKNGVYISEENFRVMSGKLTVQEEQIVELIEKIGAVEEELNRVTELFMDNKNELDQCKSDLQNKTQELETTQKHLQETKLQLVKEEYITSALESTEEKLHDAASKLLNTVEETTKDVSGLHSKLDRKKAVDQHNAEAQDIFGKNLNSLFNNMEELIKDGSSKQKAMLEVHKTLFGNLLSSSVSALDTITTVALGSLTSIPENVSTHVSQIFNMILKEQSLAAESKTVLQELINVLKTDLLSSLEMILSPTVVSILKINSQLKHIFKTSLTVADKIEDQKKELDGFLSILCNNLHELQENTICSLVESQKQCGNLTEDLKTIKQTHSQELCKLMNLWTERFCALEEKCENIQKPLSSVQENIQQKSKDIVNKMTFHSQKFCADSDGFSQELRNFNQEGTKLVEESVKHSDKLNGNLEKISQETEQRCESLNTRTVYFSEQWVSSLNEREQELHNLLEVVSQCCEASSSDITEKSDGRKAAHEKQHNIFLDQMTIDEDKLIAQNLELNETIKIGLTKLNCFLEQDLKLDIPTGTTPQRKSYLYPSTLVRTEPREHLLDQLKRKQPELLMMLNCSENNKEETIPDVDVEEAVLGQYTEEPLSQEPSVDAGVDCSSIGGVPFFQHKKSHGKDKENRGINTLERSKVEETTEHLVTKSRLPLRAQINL

Row | inhibition [1] | IC50 (HCT-116 [2]) | IC50 (HCT-116 [3]) | IC50 (HCT-116 [4]) | IC50 (HCT-116 [5]) | IC50 (HCT-116 [6]) | IC50 (HCT-116 [8]) | IC50 (HCT-116 [9]) | IC50 (HCT-116 [10]) | Ki [12] | Structure (SMILES) | Ki [7] | Activity (SK-OV-3) | Activity (HCT-116 [11])
1 | Active |  |  |  |  |  |  |  |  |  | NC(=O)Nc1ccc(-c2ccc(C(F)(F)F)cc2)cc1F |  |  | 
2 | Active | 6.9 nM | 0.83 nM | 36 nM | 0.45 nM | 2090 nM | 162 nM | 36 nM | 3.3 nM | 66 nM | O=C1CCc2cc(-c3ccc(C(F)(F)F)cc3)ccc2N1 | 109 nM | Active | Active
